This passage reports TGI and GI50 results from PubChem BioAssay (NCI).

Test systems include 786-0 renal; A549 NSCLC; CCRF-CEM leukemia; DU-145 prostate; HCT-15 colon; HOP-62 NSCLC; HT29 colon; KM12 colon; OVCAR-5 ovarian; SF-295 CNS; SK-MEL-28 melanoma; SK-MEL-5 melanoma; SK-OV-3 ovarian; SN12C renal; TK-10 renal; NCI/ADR-RES ovarian.
Holding throughout (test): NCI-60 cell line screen, 48 h

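Five concentrations, 48 hours, 96-well plates. Abbreviation: GI50, concentration required for 50% inhibition of growth. At the TGI there is no net growth.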

Consider `O=C(O)c1cccc(S(=O)(=O)NN2C(=O)CSC2c2ccccc2)c1` (configuration not stated), for which the TGI in the assay with 786-0 renal, with A549 NSCLC, in the assay with CCRF-CEM leukemia, in the assay on DU-145 prostate, in the assay on HCT-15 colon and in the assay on HOP-62 NSCLC was over 100 µM in each case. Moreover, the TGI with HT29 colon, with KM12 colon, in the assay with OVCAR-5 ovarian, with SF-295 CNS, in the assay with SK-MEL-28 melanoma and in the assay on SK-MEL-5 melanoma was over 100 µM each time. In addition, the TGI in the assay with SK-OV-3 ovarian, in the assay with SN12C renal and in the assay with TK-10 renal was over 100 µM each time.

Take `CC(=O)OCC1OC(Nc2ccc3nc(C)n(-c4cccc(C)c4)c(=O)c3c2)C(OC(C)=O)C(OC(C)=O)C1OC(C)=O` (configuration not stated): the TGI in the assay with 786-0 renal, in the assay on DU-145 prostate, in the assay on HCT-15 colon, with HOP-62 NSCLC, in the assay on HT29 colon and in the assay on KM12 colon was over 62.5 µM throughout. For the same molecule, the TGI in the assay with NCI/ADR-RES ovarian, in the assay with OVCAR-5 ovarian, in the assay on SF-295 CNS, in the assay with SK-MEL-28 melanoma, with SK-MEL-5 melanoma and with SN12C renal was over 62.5 µM throughout. The TGI in the assay with TK-10 renal was over 62.5 µM.

For the molecule `CC(=O)Nc1ccc(Nc2cc(=O)n(C)c(=O)[nH]2)cc1`, the TGI in the assay with 786-0 renal, in the assay on A549 NSCLC, with CCRF-CEM leukemia, in the assay on HCT-15 colon, in the assay on HOP-62 NSCLC and in the assay on HT29 colon was over 100 µM throughout. The TGI in the assay with KM12 colon, in the assay with NCI/ADR-RES ovarian, in the assay on OVCAR-5 ovarian, with SF-295 CNS, in the assay with SK-MEL-28 melanoma and in the assay with SK-MEL-5 melanoma was over 100 µM each time. In addition, the TGI in the assay on SK-OV-3 ovarian, in the assay with SN12C renal and with TK-10 renal was over 100 µM each time.

As for `COc1cc([C@@H]2c3cc4c(cc3[C@H](OC3OC5COC(C(C)C)OC5C(O)C3O)C3COC(=O)[C@@H]32)OCO4)cc(OC)c1O` (some centres not stated), the TGI is 22.1 µM with 786-0 renal; 21.8 µM in the assay on A549 NSCLC; over 100 µM in the assay with CCRF-CEM leukemia; 25.9 µM in the assay on HCT-15 colon; 24.4 µM in the assay with HOP-62 NSCLC; 11.1 µM with HT29 colon. Moreover, the TGI was 39.6 µM in the assay on KM12 colon; over 100 µM in the assay on NCI/ADR-RES ovarian; 25 µM in the assay with OVCAR-5 ovarian; 21.7 µM in the assay on SF-295 CNS; 22.6 µM in the assay with SK-MEL-5 melanoma; 39.1 µM with SK-OV-3 ovarian. In the assay with TK-10 renal, this molecule gave a TGI of 93.5 µM.

`FC(F)(F)P1C2C=CC(CC2)C1(F)F` (configuration not stated): the TGI in the assay on 786-0 renal, with A549 NSCLC, in the assay with CCRF-CEM leukemia, with HCT-15 colon, with HOP-62 NSCLC and in the assay on HT29 colon was over 100 µM throughout. Also, the TGI with KM12 colon, with OVCAR-5 ovarian, with SF-295 CNS, with SK-MEL-28 melanoma, with SK-MEL-5 melanoma and with SK-OV-3 ovarian was over 100 µM throughout. The TGI in the assay with SN12C renal and in the assay on TK-10 renal was over 100 µM in each case.

For `Cc1c(C(=O)CSc2nc3ccc([N+](=O)[O-])cc3[nH]2)c(=O)n(-c2ccccc2)n1C`, the TGI with 786-0 renal, in the assay on A549 NSCLC, in the assay with CCRF-CEM leukemia, with HCT-15 colon, with HOP-62 NSCLC and in the assay on HT29 colon was over 100 µM throughout. Also, the TGI in the assay with KM12 colon, in the assay with OVCAR-5 ovarian, with SF-295 CNS, in the assay with SK-MEL-28 melanoma, in the assay on SK-MEL-5 melanoma and in the assay with SK-OV-3 ovarian was over 100 µM each time. For the same molecule, the TGI in the assay on SN12C renal and in the assay with TK-10 renal was over 100 µM throughout.

For `CSc1c(C(=O)Nc2ccc(C)cc2)c(N)nn1-c1ccccc1`, the TGI was 45 µM in the assay on 786-0 renal; over 100 µM with A549 NSCLC; over 100 µM in the assay with CCRF-CEM leukemia; over 100 µM with DU-145 prostate; over 100 µM with HCT-15 colon; over 100 µM in the assay with HOP-62 NSCLC. The TGI in the assay on HT29 colon, in the assay with OVCAR-5 ovarian, with SF-295 CNS, with SK-MEL-28 melanoma, in the assay on SK-MEL-5 melanoma and in the assay on SK-OV-3 ovarian was over 100 µM each time. The TGI in the assay on SN12C renal and with TK-10 renal was over 100 µM each time.

For `CSC(SC)=C1C(=O)NN=C1C`, the TGI in the assay with 786-0 renal, in the assay on A549 NSCLC, in the assay with CCRF-CEM leukemia, with DU-145 prostate, in the assay on HCT-15 colon and with HOP-62 NSCLC was over 100 µM in each case. The TGI with HT29 colon, in the assay on KM12 colon, in the assay on OVCAR-5 ovarian, in the assay with SF-295 CNS, in the assay with SK-MEL-28 melanoma and in the assay on SK-MEL-5 melanoma was over 100 µM throughout. Also, the TGI in the assay on SK-OV-3 ovarian, with SN12C renal and in the assay on TK-10 renal was over 100 µM in each case.

`O=C1Nc2cccc3ncn(c23)C2=C1CCCC2`: the TGI in the assay with 786-0 renal, in the assay on A549 NSCLC, in the assay on CCRF-CEM leukemia, in the assay with HCT-15 colon, with KM12 colon and with OVCAR-5 ovarian was over 100 µM throughout. In addition, the TGI in the assay on SF-295 CNS, in the assay with SK-MEL-28 melanoma, in the assay with SK-MEL-5 melanoma, in the assay on SK-OV-3 ovarian, in the assay on SN12C renal and in the assay with TK-10 renal was over 100 µM each time.

For `CC(=O)O[C@H]1C(=O)[C@@]2(C)C([C@H](OC(=O)c3ccccc3)[C@]3(O)C[C@H](OC(=O)[C@H](O)[C@H](NC(=O)c4ccccc4)c4ccc(Cl)cc4)C(C)=C1C3(C)C)C1(OC(C)=O)CO[C@@H]1C[C@@H]2O` (some centres not stated), the TGI was 28.1 µM in the assay with 786-0 renal; 24.4 µM in the assay with A549 NSCLC; 12.9 µM with CCRF-CEM leukemia; over 100 µM in the assay with HCT-15 colon; 26.5 µM with HOP-62 NSCLC; 0.0407 µM in the assay on OVCAR-5 ovarian. Moreover, the TGI with SK-MEL-5 melanoma worked out at 1.76 µM; in the assay with TK-10 renal it was 14.4 µM. Besides, the GI50 in the assay with HCT-15 colon was 0.0583 µM; with HOP-62 NSCLC, 0.0321 µM; in the assay on SF-295 CNS, 0.0167 µM; in the assay on TK-10 renal, 0.0171 µM.
